Experimental findings from PubChem BioAssay AID1259411 (Chemical Carcinogenesis Research Information System (CCRIS), 2018) are described below.

The subject of the data set is rodent carcinogenicity bioassays, tumor incidence. Briefly: CCRIS carcinogenicity studies. The gist of the method: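 Archive of carcinogenicity, mutagenicity, tumor promotion and tumor inhibition results drawn from journals, NCI reports and other sources, expert-reviewed; covers 1985-2011 and is no longer updated.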

The source made the active and inactive calls. The rule behind the calls is not given here.

For `CS(=O)CC(=O)c1ccccn1` (stereo not given), the carcinogen call runs as follows: (Species: MOUSE, Strain/Sex: B6C3F1/FEMALE, Route: ORAL, Dose: 0, 40, 240, 600 MG/KG IN DIET FOR 80 WK (STUDY DURATION: 80 WK), Dose: 0, 40, 240, 600 MG/KG IN DIET FOR 80 WK (STUDY DURATION: 80 WK), Tumor Site: Type of Lesion: LUNG: ALVEOLOGENIC ADENOCARCINOMA) “active; positive”; (Species: MOUSE, Strain/Sex: CF1/MALE, Route: ORAL, Dose: 0, 40, 240, 600 MG/KG IN DIET FOR 80 WK (STUDY DURATION: 80 WK), Dose: 0, 40, 240, 600 MG/KG IN DIET FOR 80 WK (STUDY DURATION: 80 WK)) “inactive; negative”; (Species: RAT, Strain/Sex: WISTAR/FEMALE, Route: ORAL, Dose: 0, 40, 240, 600 MG/KG IN DIET FOR 104 WK (STUDY DURATION: 104 WK), Dose: 0, 40, 240, 600 MG/KG IN DIET FOR 104 WK (STUDY DURATION: 104 WK)) “inactive; negative”; (Species: RAT, Strain/Sex: WISTAR/MALE, Route: ORAL, Dose: 0, 40, 240, 600 MG/KG IN DIET FOR 104 WK (STUDY DURATION: 104 WK), Dose: 0, 40, 240, 600 MG/KG IN DIET FOR 104 WK (STUDY DURATION: 104 WK), Tumor Site: Type of Lesion: LIVER: HEPATOCELLULAR ADENOMA) “active; positive”.
`CC(=O)Nc1cc(NS(=O)(=O)C(F)(F)F)c(C)cc1C`: the carcinogen call by setting is: (Species: Mouse, Strain/Sex: Strain not specified by Department of Pesticide Regulation/Female (60/Group), Route: Oral, Dose: 0, 600, 1800, 6000 ppm of 93% mefluidide in diet for 18-19 mo, study duration 19 mo, Dose: 0, 600, 1800, 6000 ppm of 93% mefluidide in diet for 18-19 mo, study duration 19 mo) “inactive; negative”; (Species: Mouse, Strain/Sex: Strain not specified by Department of Pesticide Regulation/Male (60/Group), Route: Oral, Dose: 0, 600, 1800, 6000 ppm of 93% mefluidide in diet for 18-19 mo, study duration 19 mo, Dose: 0, 600, 1800, 6000 ppm of 93% mefluidide in diet for 18-19 mo, study duration 19 mo) “inactive; negative”.
For `CC1(C)C(C(=O)OC(C#N)c2cccc(Oc3ccccc3)c2)C1(C)C` (stereo not given), the carcinogen call is “inactive; negative” (Species: Mouse, Strain/Sex: CD-1/Female (52/Group), Dose: 0, 40, 150, 600 ppm of 91.4 - 92.5 % fenpropathrin in diet for 2 yr, study duration 2 yr, Dose: 0, 40, 150, 600 ppm of 91.4 - 92.5 % fenpropathrin in diet for 2 yr, study duration 2 yr); “inactive; negative” (Species: Mouse, Strain/Sex: CD-1/Male (52/Group), Dose: 0, 40, 150, 600 ppm of 91.4 - 92.5 % fenpropathrin in diet for 2 yr, study duration 2 yr, Dose: 0, 40, 150, 600 ppm of 91.4 - 92.5 % fenpropathrin in diet for 2 yr, study duration 2 yr); “inactive; negative” (Species: Rat, Strain/Sex: CD/Female (50/Group), Route: Oral, Dose: 0, 50, 150, 450 ppm of 91.4-92.5% fenpropathrin in diet for >52 wk, study duration up to 2 yr, Dose: 0, 50, 150, 450 ppm of 91.4-92.5% fenpropathrin in diet for >52 wk, study duration up to 2 yr); “inactive; negative” (Species: Rat, Strain/Sex: CD/Male (50/Group), Route: Oral, Dose: 0, 50, 150, 450 ppm of 91.4-92.5% fenpropathrin in diet for >52 wk, study duration up to 2 yr, Dose: 0, 50, 150, 450 ppm of 91.4-92.5% fenpropathrin in diet for >52 wk, study duration up to 2 yr).
On to `CN(C)C(=O)NN=O`, for which the carcinogen call is, setting by setting: (Species: HAMSTER, Strain/Sex: SYRIAN/FEMALE, Route: SUBCUTANEOUS, Dose: 40 MG/KG 1/WK, Tumor Site: Type of Lesion: FORESTOMACH: SQUAMOUS CELL CARCINOMA, MAMMARY GLAND: ADENOCARCINOMA OR ADENOACANTHOMA, UTERUS: ADENOACANTHOMA, Tumor Site: Type of Lesion: FORESTOMACH: SQUAMOUS CELL CARCINOMA, MAMMARY GLAND: ADENOCARCINOMA OR ADENOACANTHOMA, UTERUS: ADENOACANTHOMA) “active; positive”; (Species: HAMSTER, Strain/Sex: SYRIAN/MALE, Route: SUBCUTANEOUS, Dose: 40 MG/KG 1/WK, Tumor Site: Type of Lesion: FORESTOMACH: SQUAMOUS CELL CARCINOMA) “active; positive”; (Species: MOUSE, Strain/Sex: C3H/FEMALE, Route: SUBCUTANEOUS, Dose: 80 MG/KG 1/WK (TOTAL AVE DOSE 1015 MG/KG), Tumor Site: Type of Lesion: LYMPHATIC SYSTEM: MALIGNANT LYMPHOMA) “active; positive”; (Species: MOUSE, Strain/Sex: C3H/MALE, Route: SUBCUTANEOUS, Dose: 80 MG/KG 1/WK (TOTAL AVE DOSE 1073 MG/KG), Tumor Site: Type of Lesion: LYMPHATIC SYSTEM: MALIGNANT LYMPHOMA) “active; positive”.
As for `O=P(O)(OCC(Br)CBr)OCC(Br)CBr` (stereo not given), the carcinogen call by setting is: (Species: RAT, Strain/Sex: WISTAR/FEMALE, Route: ORAL, Dose: 0, 80, 400, 2000 IN DIET FOR 24 MO (STUDY DURATION: 24 MO), Dose: 0, 80, 400, 2000 IN DIET FOR 24 MO (STUDY DURATION: 24 MO), Tumor Site: Type of Lesion: LIVER: HEPATOCELLULAR CARCINOMA, SMALL INTESTINE: ADENOCARCINOMA, FORESTOMACH: PAPILLOMA, ESOPHAGUS: PAPILLOMA, Tumor Site: Type of Lesion: LIVER: HEPATOCELLULAR CARCINOMA, SMALL INTESTINE: ADENOCARCINOMA, FORESTOMACH: PAPILLOMA, ESOPHAGUS: PAPILLOMA) “active; positive”; (Species: RAT, Strain/Sex: WISTAR/MALE, Route: ORAL, Dose: 0, 80, 400, 2000 IN DIET FOR 24 MO (STUDY DURATION: 24 MO), Dose: 0, 80, 400, 2000 IN DIET FOR 24 MO (STUDY DURATION: 24 MO), Tumor Site: Type of Lesion: SMALL INTESTINE: ADENOCARCINOMA, FORESTOMACH: PAPILLOMA, ESOPHAGUS: PAPILLOMA, Tumor Site: Type of Lesion: SMALL INTESTINE: ADENOCARCINOMA, FORESTOMACH: PAPILLOMA, ESOPHAGUS: PAPILLOMA) “active; positive”.
With `CCN(CC)c1ccc(C(=C2C=CC(=[N+](CC)CC)C=C2)c2ccc(S(=O)(=O)O)cc2S(=O)(=O)[O-])cc1`, the carcinogen call (Species: RAT, Route: SUBCUTANEOUS, INTRAMUSCULAR, Tumor Site: Type of Lesion: INJECTION SITE) is “active; positive”.
Regarding `COc1c(N2C[C@@H]3CCCN[C@@H]3C2)c(F)cc2c(=O)c(C(=O)O)cn(C3CC3)c12`, for the setting “Species: RAT, Strain/Sex: WISTAR/MALE, FEMALE, Route: GAVAGE, Dose: 0, 500 MG/KG BW/D FOR 38 WK (STUDY DURATION: 38 WK)”, the carcinogen call was “inactive; negative”.
For `C1CCC2CCCCC2C1` (stereo not given), the carcinogen call runs as follows: (Species: MOUSE, Strain/Sex: B6C3F1/FEMALE (50/GROUP), Route: INHALATION, Dose: 0, 25, 100, 400 PPM 6 HR/D, 5 D/WK FOR 105 WKS (STUDY DURATION: 105 WKS), Dose: 0, 25, 100, 400 PPM 6 HR/D, 5 D/WK FOR 105 WKS (STUDY DURATION: 105 WKS), Tumor Site: Type of Lesion: LIVER: HEPATOCELLULAR ADENOMA OR CARCINOMA (22%; 54%; 28%; 42%)) “equivocal; ntp says marginal increase in uterine tumors but p values did not rea”; (Species: MOUSE, Strain/Sex: B6C3F1/MALE (50/GROUP), Route: INHALATION, Dose: 0, 25, 100, 400 PPM 6 HR/D, 5 D/WK FOR 105 WKS (STUDY DURATION: 105 WKS), Dose: 0, 25, 100, 400 PPM 6 HR/D, 5 D/WK FOR 105 WKS (STUDY DURATION: 105 WKS)) “inactive; negative”; (Species: RAT, Strain/Sex: F344/FEMALE, Route: INHALATION, Dose: 0, 25, 100, 400 PPM IN AIR, 6 H PLUS 12 MIN/D, 5 D/WK FOR 2 YR (STUDY DURATION: 2 YR), Dose: 0, 25, 100, 400 PPM IN AIR, 6 H PLUS 12 MIN/D, 5 D/WK FOR 2 YR (STUDY DURATION: 2 YR)) “inactive; negative”; (Species: RAT, Strain/Sex: F344/MALE, Route: INHALATION, Dose: 0, 25, 50, 100, 400 PPM IN AIR , 6 H PLUS 12 MIN/D, 5 D/WK FOR 2 YR (STUDY DURATION: 2 YR), Dose: 0, 25, 50, 100, 400 PPM IN AIR , 6 H PLUS 12 MIN/D, 5 D/WK FOR 2 YR (STUDY DURATION: 2 YR), Tumor Site: Type of Lesion: KIDNEY: RENAL TUBULE ADENOMA, RENAL TUBULE ADENOMA OR CARCINOMA) “active; positive”; (Species: RAT, Strain/Sex: F344/N/FEMALE (50/GROUP), Route: INHALATION, Dose: 0, 25, 100, 400 PPM 6 HR/D, 5 D/WK FOR 105 WKS (STUDY DURATION: 105 WKS), Dose: 0, 25, 100, 400 PPM 6 HR/D, 5 D/WK FOR 105 WKS (STUDY DURATION: 105 WKS)) “inactive; negative”; (Species: RAT, Strain/Sex: F344/N/MALE (20/GROUP), Route: INHALATION, Dose: 400 PPM 6 HR/D, 5 D/WK FOR 105 WKS (STUDY DURATION: 105 WKS), Tumor Site: Type of Lesion: KIDNEY: RENAL TUBULE ADENOMA OR CARCINOMA (30%), ADRENAL: PHEOCHROMOCYTOMA (40%)) “active; positive”. Also, the carcinogen call (Species: RAT, Strain/Sex: F344/N/MALE (50/GROUP), Route: INHALATION, Dose: 0, 25, 50, 100 PPM 6 HR/D, 5 D/WK FOR 105 WKS (STUDY DURATION: 105 WKS), Dose: 0, 25, 50, 100 PPM 6 HR/D, 5 D/WK FOR 105 WKS (STUDY DURATION: 105 WKS), Tumor Site: Type of Lesion: KIDNEY: RENAL TUBULE ADENOMA OR CARCINOMA (2%; 6%; 14%; 24%), ADRENAL: BENIGN OR MALIGNANT PHEOCHROMOCYTOMA (16%, 18%, 2, Tumor Site: Type of Lesion: KIDNEY: RENAL TUBULE ADENOMA OR CARCINOMA (2%; 6%; 14%; 24%), ADRENAL: BENIGN OR MALIGNANT PHEOCHROMOCYTOMA (16%, 18%, 2) is “active; positive; alpha-2u-globulin, incidences of renal tubule regeneration and granula”.
